Where two headings read alike, the source gives them in different places.
Key:
[1] = cited from earlier work
[2] = ESRD patient, cited from earlier work
[3] = cited from earlier work; remark: listed apart in the source
[4] = patients with normal renal function; cited from earlier work

| SMILES | water solubility relative to calcium phosphate [1] | serum sodium thiosulfate concentration ([2]; 15 min after infusion) | serum sodium thiosulfate concentration ([2]; after a 4-h hemodialysis session) | serum sodium thiosulfate concentration ([2]; before hemodialysis (52 h after administration)) | calculated half life [2] | elimination route ([3]; anuric dogs) | half-life ([3]; anuric dogs) | metabolic clearance rate ([3]; dogs, during renal failure) | volume of distribution ([3]; dogs, during renal failure) | distribution ([3]; normal and anuric mongrel dogs) | cleared renally ([3]; normal dogs) | half-life ([3]; normal dogs) | solubility in the dialysis solution (hemodialysis dialysate) | solubility in peritoneal dialysis solutions (peritoneal dialysis solutions) | solubility in water [1] | serum half-life [4] |
| --- | --- | --- | --- | --- | --- | --- | --- | --- | --- | --- | --- | --- | --- | --- | --- | --- |
| O=S([O-])([O-])=S.[Ca+2] [Calcium thiosulfate] | many folds more water soluble than calcium phosphate | – | – | – | – | – | – | – | – | – | – | – | – | – | – | – |
| O=S([O-])([O-])=S.[Na+].[Na+] [sodium thiosulfate] | – | 110 µg/mL | 0 µg/mL | 1.2 µg/mL | 7.97 h | primarily through the biliary system | 3.98 h | decreased drastically | doubled | distributes rapidly throughout the extracellular space | > 98% | 0.78 h | soluble | soluble | soluble in water | 0.25 h |

Source: patent publication US20090304600A1 (priority 2008, published 2009)
